Experimental data: patent US6479472B1, “Methods of using therapeutic phospholipid derivatives” (Asta Medica Aktiengesellschaft, priority 1993, dated 2002)
Counter-ions that a name gives are not always drawn.

Legend:
[1] = test system: human KB tumors (ATCC CCL 17 KB, human epidermoid larynx tumors); test: KB tumor model, subcutaneous implants in nude mice, oral treatment (Experiment 2); format: in vivo, female nu/nu mice (strain NMRI); settings: for efficacy of standard cytostatics: KB implanted tumors in test mice
Text: (§1) The inventors used female, nu/nu mice (strain NMRI) aged 9-10 weeks and weighing 21-29 g (Breeder: Bomholtgard Breeding and Research Center, DK-8680 Ry) for testing. Tumor fragments consisting of the human KB tumors (ATCC; Rockville, Md.; cell line ATCC CCL 17 KB, human epidermoid larynx tumors), and having an average diameter of 2 mm, were implanted subcutaneously into the right side of the test mice.
The test mice were randomly assigned to various treatment and control groups.
Tumor weights were estimated by first palpating the tumors and then comparing the volumes of the palpated tumors with the volumes of prefabricated plasticine models according to Druckrey, et al., “Experimentelle Beiträge zum Dosis-Problem in der Krebs-Chemotherapie und zur Wirkungsweise von Endoxan, Dtsch. Med. Wschr., 88:651 (1963). After determining the weight of the models, the inventors converted each of these values to a tumor weight by determining the relationship between the specific weight of each tumor tissue and its corresponding plasticine model. To ensure the accuracy of this method, the inventors simultaneously estimated the weights of 99 individual tumors by both palpation and direct weighing of extirpated tumors.
Once the KB tumor implants attained a weight of approximately 0.2 g, the inventors commenced therapy with the compounds of Examples 1, 8, 17, 21, 22, 24 and 25 of the subject application. Each compound was dissolved in 0.9% NaCl and administered per os (stomach tube) in accordance with the regimen schedules detailed in Graphs 10-17 hereinbelow. The control mice were treated with the vehicle alone.
During the observation period, tumor weights were determined for each of the test mice at regular intervals.
The test mice were all housed under specific pathogen free (SPF) conditions with unrestricted water supply (acidified to pH 3) and standard pellet lab chow (Altromin 1324).

[2] = test system: DMBA-induced mammary carcinomas; test: DMBA-induced mammary carcinoma model, oral treatment, tumor weight by palpation (Experiment 1); format: in vivo, female Sprague-Dawley rats; settings: for efficacy of standard cytostatics: DMBA-induced mammary carcinomas in test rats
Text: The first tumor appeared approximately one month after feeding the subject rats with DMBA. Tumor weights were estimated on the basis of tumor volume. This was accomplished by palpating tumors and comparing the volumes of the palpated tumors with the volumes of prefabricated plasticine models in the manner taught by Druckrey, et al., “Experimentelle Beiträge zum Dosis-Problem in der Krebs-Chemotherapie und zur Wirkungsweise von Endoxan, Dtsch. Med. Wschr., 88:651 (1963). Each of the relevant plasticine models was then weighed and converted to a tumor weight by means of a factor reflecting the relationship between the specific weight of each tumor tissue and its corresponding plasticine model. […] A statistical evaluation of the resulting data indicated a correlation coefficient of 0.98. Test rats having a total tumor weight of approximately 1 g were randomly allocated amongst various dosage and control groups, each group having a total of 6-7 rats. In this way, the inventors were able to ensure an approximately equal distribution amongst the experimental groups of tumors having different latencies, total tumor weight and numbers of tumor nodes. […] The control group was given tap water in accordance with the same schedule. […] During the observation period, tumor weights were determined for each of the test rats at regular intervals. The test rats were all housed under specific pathogen free (SPF) conditions with unrestricted water supply (acidified to pH 3) and standard pellet lab chow (Altromin 1324). […] J. Oncol., 2:161 (1993).

[3] = test system: DMBA-induced mammary carcinomas / KB implanted tumors; test: Summary statement on Experiments 1 and 2 (DMBA and KB tumor models, model not told per compound); format: in vivo, rats / mice; settings: for tumor remission: model and regimen not given; for GII (growth inhibition index): specified dosage regimens, model not given, GII>100% = tumor regression
Procedure: The inventors induced mammary carcinomas in female Sprague-Dawley rats (Mollegaard Breeding Center, DK-4236 Ejby) aged 50 days by administering a single dose of 20 mg 7,12-dimethylbenz(a)anthracene (DMBA) dissolved in 1 ml of olive oil to each rat by gavage. The first tumor appeared approximately one month after feeding the subject rats with DMBA.
as §1
Results from Experiments 1 and 2 were calculated and expressed in accordance with the growth inhibition index (GII) described in Voegeli, et al., “Selective cytostatic activity of Hexadecylphosphocholine against tumor cells in vitro leads to the establishment of an in vivo screening system for phospholipid analogues,” Int. J. Oncol., 2:161 (1993). The GII values from Experiments 1 and 2 are detailed in Table 1 below.

[4] = 4 × 100 mg/kg per os, treatment day 0, 3, 7, 10, >100 = tumor regression
[5] = 2 × 316 mg/kg per os, treatment day 0, 7

Which “efficacy of standard cytostatics” value [1] does the source give for `COc1cccc2c1C(=O)c1c(O)c3c(c(O)c1C2=O)C[C@@](O)(C(=O)CO)C[C@@H]3O[C@H]1C[C@H](N)[C@H](O)[C@H](C)O1` [Adriamycin, reference compound] here?
Its value is “relatively ineffective”.

And the “efficacy of standard cytostatics” value [2]?
The value was “relatively ineffective”.

What does the source list for `N.N.[Cl][Pt][Cl]` [Cisplatin, reference compound]?
efficacy of standard cytostatics [1]: relatively ineffective; efficacy of standard cytostatics [2]: relatively ineffective

What does the source list for `O=P1(N(CCCl)CCCl)NCCCO1` (centres unmarked) [Cyclophosphamide, reference compound]?
efficacy of standard cytostatics [1]: relatively ineffective; efficacy of standard cytostatics [2]: relatively ineffective

For `CCCCCCCCCCCCCCCCCCOP(=O)([O-])OC1CC[N+](C)(C)CC1` [Example 1, 4-(((Octadecyloxy)hydroxyphosphenyl)oxy)-1,1-dimethylpiperidinium hydroxide internal salt], which tumor remission [3] is on record?
The tumor remission was “complete disappearance of tumors”.

And the “KB (G.I.I. %)” value ([1]; 1 × 511 mg/kg per os, treatment day 0)?
The value was 103%.

What about the “DMBA (G.I.I. %)” value [2, 4] of the same compound?
Its value is 119%.

What about the “DMBA (G.I.I. %)” value ([2]; 14 × 31.6 mg/kg per os, treatment day 0-13) of the same compound?
The value was 108%.

And the “DMBA (G.I.I. %)” value ([2]; 28 × 68.1 mg/kg per os, 'large tumors', treatment day 0-27)?
The value was 137%.

Which “GII (growth inhibition index)” value [3] does the source give for `CCCCCCCCCCCCCCCCCCOP(=O)([O-])OCC1CCCC[N+]1(C)C` (centres unmarked) [Example 8, Octadecyl (1,1-dimethylpiperidinio-2-yl)methyl phosphate] here?
The value was 100%.

And the “KB (G.I.I. %)” value [1, 5]?
Its value is 100%.

What about the “DMBA (G.I.I. %)” value [2, 4] of the same compound?
The value was 125%.

For `CCCCCCCCCCCCCCCCCCOP(=O)([O-])OCC1CCC[N+](C)(C)C1` (centres unmarked) [Example 10, Octadecyl (1,1-dimethylpiperidinio-3-yl)methyl phosphate], which “GII (growth inhibition index)” value [3] is on record?
The value was 100%.

What about the “KB (G.I.I. %)” value [1, 5] of the same compound?
The value was 99%.

Which results are given for `CCCCCCCCCCCCCCCCCCOP(=O)([O-])OC1CCC[N+](C)(C)CC1` (centres unmarked) [Example 13, Octadecyl 1,1-dimethylhexahydroazepinio-4-yl phosphate]?
DMBA (G.I.I. %) ([2]; 1 × 511 mg/kg per os, 'large tumors', treatment day 0): 145%; DMBA (G.I.I. %) ([2]; 14 × 46.4 mg/kg per os, treatment day 0-13): 129%

How did the “KB (G.I.I. %)” value ([1]; 2 × 100 mg/kg per os, treatment day 0, 7) turn out when `CCCCCCCCCCCCCCCCCCOP(=O)([O-])OC1CC[N+](C)(C)C1` (centres unmarked) [Example 17, Octadecyl 1,1-dimethylpyrrolidinio-3-yl phosphate] was run?
The value was 90%.

Which results are given for `CCCCCCCCCCCCCCCCOP(=O)([O-])OCC1CCC[N+]1(C)C` (centres unmarked) [Example 20, Hexadecyl (1,1-dimethylpyrrolidinio-2-yl)methyl phosphate]?
GII (growth inhibition index) [3]: 100%; DMBA (G.I.I. %) [2, 4]: 99%

How did the tumor remission [3] turn out when `CCCCCCCCCCCCCCCCCCOP(=O)([O-])OCC1CCC[N+]1(C)C` (centres unmarked) [Example 21, Octadecyl (1,1-dimethylpyrrolidinio-2-yl)methyl phosphate] was run?
The tumor remission was “complete disappearance of tumors”.

And the “KB (G.I.I. %)” value [1, 5]?
Its value is 106%.

And the “DMBA (G.I.I. %)” value [2, 4]?
The value was 116%.

For `CCCCCCCCCCCCCCCCOP(=O)([O-])OC1C[N+]2(C)CCC1CC2` (centres unmarked) [Example 22, Hexadecyl 1-methylquinuclidinio-3-yl phosphate], which “KB (G.I.I. %)” value ([1]; 2 × 383 mg/kg per os, treatment day 0, 7) is on record?
Its value is 102%.

And the “DMBA (G.I.I. %)” value [2, 4]?
The value was 105%.

For `CCCCCCCCCCCCCCCCOP(=O)([O-])OC1CC2CCC(C1)[N+]2(C)C` (centres unmarked) [Example 24, Hexadecyl 1,1-dimethyltropanio-4-yl phosphate], which “KB (G.I.I. %)” value ([1]; 2 × 215 mg/kg per os, treatment day 0, 7) is on record?
Its value is 108%.

Which results are given for `CCCCCCCCCCCCCCCCCCOP(=O)([O-])OC1CC2CCC(C1)[N+]2(C)C` (centres unmarked) [Example 25, Octadecyl 1,1-dimethyltropanio-4-yl phosphate]?
tumor remission [3]: complete disappearance of tumors; KB (G.I.I. %) [1, 5]: 110%
